In patent publication US11666558B2, “Methods of treating intraocular pressure with activators of Tie-2” (EyePoint Pharmaceuticals, Inc., priority 2015, dated 2023):
Where two headings read alike, the source gives them in different places.

Assay: Ocular tissue concentrations (aqueous humor, vitreous humor, iris, retina, choroid, cornea) after topical ocular, subcutaneous and intravitreal administration
Format: in vivo, New Zealand White rabbits
Conditions: for Cornea Conc. (ng/mL) OS: Cornea homogenate; for Cornea Conc. (ng/mL) OS / concentration at 0.5 h / concentration at 1 h / concentration at 2 h / concentration at 4 h: subcutaneous 5 mg/kg/dose; for concentration at 6 hr / concentration at 24 hr / concentration at 48 hr / concentration at 72 hr / concentration at 0.5 h / concentration at 1 h / concentration at 2 h / concentration at 4 h: New Zealand White, rabbit; for concentration at 6 hr / concentration at 24 hr / concentration at 48 hr / concentration at 72 hr: other: intravitreal, 2.5 mg/eye; for concentration at 0.5 h / concentration at 1 h / concentration at 2 h / concentration at 4 h: subcutaneous, 5 mg/kg/dose
Protocol: To measure the concentration of Compound 1 in plasma and ocular tissues following topical ocular, subcutaneous, and intravitreal administration, New Zealand White rabbits were administered Compound 1, and plasma and ocular samples were collected at pre-determined time points. Compound 1 formulations were prepared fresh on each day of dosing.
Ocular tissue samples from both eyes of each animal were collected and weights were recorded. Plasma and ocular tissue sample concentrations of Compound 1 were determined by LC-MS/MS.
New Zealand White rabbits weighing 2.5 to 3.5 kg were used on this study. Rabbits were housed one per cage. Animals were not fasted and only healthy animals with no ocular illness were used. Two rabbits per group were sacrificed at each of four ocular tissue sampling time points for a total of eight rabbits per group.
Animals were anesthetized for ocular (topical) and intravitreal dosing following the 12IA7 IACUC protocol. Each rabbit received a bolus dose of test formulation either via topical ocular administration 3 times daily on Days 1 and 2 (at 0, 6, and 12 hours), and once on Day 3 (at 0 hours) into both eyes; via intravitreal administration into both eyes once on Day 1 (at 0 hours); or via subcutaneous administration 2 times daily on Days 1 and 2 (at 0 and 8 hours) and once daily on Day 3 (at 0 hours). Doses were given within an approximately 1 hour window each day where applicable.
On Day 1, for intravitreal administration, or on Day 3, for topical ocular and subcutaneous administration, at the appropriate ocular tissue collection time points, animals were euthanized and both eyes were enucleated immediately. Following enucleation, each eye was rinsed with phosphate-buffered saline. Ocular tissue samples from both eyes of each animal were collected at predetermined time points and weights were recorded. All the samples were frozen immediately on dry ice, and stored at −60° C. to −80° C. pending bioanalysis.
An LC-MS/MS method was developed for the determination of Compound 1 in rabbit aqueous tissues (plasma, aqueous and vitreous humor) and solid ocular tissue samples. A pre-study standard curve was analyzed to determine the specificity, range, and lower limit of quantitation of the method. Plasma and tissue homogenate study samples were extracted and analyzed. All the samples were treated identically to the standards.
One eight-point standard curve was used in each analytical batch. To be accepted, each batch must have had at least five of eight standards with accuracy within ±20% of nominal, except at the lower limit of quantification (LLOQ), where ±25% was acceptable.
Concentration versus time data is plotted in FIGS. 3-16. All data are expressed as ng/g of the free drug. Samples that were below the limit of quantitation (0.2 ng/mL) were not used in the calculation of averages.

[1] = choroid homogenate, Choroid homogenate, left eye, intravitreal 2.5 mg/eye (group 5), individual animals, read-out: Conc. (ng/mL) OS
[2] = choroid homogenate, Choroid homogenate, OD, sodium salt, intravitreal 2.5 mg/eye, Group 4, read-out: Choroid Conc. (ng/mL) OD
[3] = choroid homogenate, Choroid homogenate, OS, sodium salt, intravitreal 2.5 mg/eye, Group 4, read-out: Choroid Conc. (ng/mL) OS
[4] = choroid homogenate, Choroid homogenate, right eye, intravitreal 2.5 mg/eye (group 5), individual animals, read-out: Conc. (ng/mL) OD
[5] = choroid homogenate, Choroid homogenate, OD, sodium salt, Group 2, read-out: Choroid Conc. (ng/mL) OD
[6] = choroid homogenate, Choroid homogenate, OS, sodium salt, Group 2, read-out: Choroid Conc. (ng/mL) OS
[7] = choroid, Choroid, OD, sodium salt, intravitreal 2.5 mg/eye, Group 4, read-out: Choroid Conc. (ng/g) OD
[8] = choroid, Choroid, OS, sodium salt, intravitreal 2.5 mg/eye, Group 4, read-out: Choroid Conc. (ng/g) OS
[9] = choroid, Choroid, average, intravitreal 2.5 mg/eye (group 5), read-out: Avg.
[10] = choroid, Choroid, left eye, intravitreal 2.5 mg/eye (group 5), individual animals, read-out: Conc. (ng/g) OS
[11] = choroid, Choroid, sodium salt, intravitreal 2.5 mg/eye, Group 4, read-out: Choroid Avg.
[12] = choroid, Choroid, right eye, intravitreal 2.5 mg/eye (group 5), individual animals, read-out: Conc. (ng/g) OD
[13] = choroid, Choroid, OD, sodium salt, Group 2, read-out: Choroid Conc. (ng/g) OD
[14] = choroid, Choroid, OS, sodium salt, Group 2, read-out: Choroid Conc. (ng/g) OS
[15] = choroid, Choroid, free acid, Group 3, read-out: Choroid Average
[16] = choroid, Choroid, sodium salt, Group 2, read-out: Choroid Average

## COC(=O)N[C@@H](Cc1ccccc1)C(=O)N[C@@H](Cc1ccc(NS(=O)(=O)O)cc1)c1csc(-c2cccs2)n1 [Compound 1]
1 hr, OS, free acid, Group 3
  Cornea Conc. (ng/mL) OS: BLOQ (Below the limit of quantitation (0.5 ng/mL))
2 hr, OS, free acid, Group 3
  Cornea Conc. (ng/mL) OS: BLOQ (Below the limit of quantitation (0.5 ng/mL))
[1]
  concentration at 6 hr: 63400 ng/mL
  concentration at 24 hr: 28400 ng/mL
  concentration at 48 hr: 9320 ng/mL
  concentration at 72 hr: 2660 ng/mL
[2]
  concentration at 24 hr: 11800 ng/mL
  concentration at 48 hr: 3480 ng/mL
[3]
  concentration at 24 hr: 9890 ng/mL
  concentration at 48 hr: 3740 ng/mL
  concentration at 72 hr: 282 ng/mL
[4]
  concentration at 48 hr: 9940 ng/mL
  concentration at 72 hr: 2180 ng/mL
[5]
  concentration at 0.5 h: 24 ng/mL
  concentration at 4 h: 1.7 ng/mL
Choroid homogenate, Choroid homogenate, OS, free acid, Group 3, read-out: Choroid Conc. (ng/mL) OS
  concentration at 0.5 h: 7.55 ng/mL
[6]
  concentration at 0.5 h: 25.6 ng/mL
  concentration at 4 h: 1.22 ng/mL
Choroid homogenate, Choroid homogenate, 1 hr, OD, free acid, Group 3, read-out: Choroid Conc. (ng/mL) OD
  concentration at 1 h: 6.04 ng/mL
Choroid homogenate, Choroid homogenate, 1 hr, OD, sodium salt, Group 2, read-out: Choroid Conc. (ng/mL) OD
  concentration at 1 h: 29.1 ng/mL
Choroid homogenate, Choroid homogenate, 1 hr, OS, free acid, Group 3, read-out: Choroid Conc. (ng/mL) OS
  concentration at 1 h: 8.01 ng/mL
Choroid homogenate, Choroid homogenate, 1 hr, OS, sodium salt, Group 2, read-out: Choroid Conc. (ng/mL) OS
  concentration at 1 h: 13.1 ng/mL
Choroid homogenate, Choroid homogenate, 2 hr, OD, free acid, Group 3, read-out: Choroid Conc. (ng/mL) OD
  concentration at 2 h: 3.32 ng/mL
Choroid homogenate, Choroid homogenate, 2 hr, OS, free acid, Group 3, read-out: Choroid Conc. (ng/mL) OS
  concentration at 2 h: 4.84 ng/mL
Choroid homogenate, Choroid homogenate, OD, free acid, Group 3, read-out: Choroid Conc. (ng/mL) OD
  concentration at 4 h: 4.82 ng/mL
Choroid homogenate, TABLE 16: Choroid homogenate, OS, free acid, Group 3, read-out: Choroid Conc. (ng/mL) OS
  concentration at 0.5 h: 7.55 ng/mL
Choroid homogenate, TABLE 16: Choroid homogenate, 1 hr, OD, free acid, Group 3, read-out: Choroid Conc. (ng/mL) OD
  concentration at 1 h: 6.04 ng/mL
Choroid homogenate, TABLE 16: Choroid homogenate, 1 hr, OS, free acid, Group 3, read-out: Choroid Conc. (ng/mL) OS
  concentration at 1 h: 8.01 ng/mL
Choroid homogenate, TABLE 16: Choroid homogenate, 2 hr, OD, free acid, Group 3, read-out: Choroid Conc. (ng/mL) OD
  concentration at 2 h: 3.32 ng/mL
Choroid homogenate, TABLE 16: Choroid homogenate, 2 hr, OS, free acid, Group 3, read-out: Choroid Conc. (ng/mL) OS
  concentration at 2 h: 4.84 ng/mL
Choroid homogenate, TABLE 16: Choroid homogenate, OD, free acid, Group 3, read-out: Choroid Conc. (ng/mL) OD
  concentration at 4 h: 4.82 ng/mL
[7]
  concentration at 6 hr: 346000 ng/g
  concentration at 24 hr: 130000 ng/g
  concentration at 48 hr: 38300 ng/g
[8]
  concentration at 6 hr: 484000 ng/g
  concentration at 24 hr: 109000 ng/g
  concentration at 48 hr: 41100 ng/g
  concentration at 72 hr: 3100 ng/g
[9]
  concentration at 6 hr: 664000 ng/g
  concentration at 24 hr: 398000 ng/g
  concentration at 48 hr: 120000 ng/g
  concentration at 72 hr: 27600 ng/g
[10]
  concentration at 6 hr: 697000 ng/g
  concentration at 24 hr: 312000 ng/g
  concentration at 48 hr: 103000 ng/g
  concentration at 72 hr: 29300 ng/g
[11]
  concentration at 6 hr: 947000 ng/g
  concentration at 24 hr: 139000 ng/g
  concentration at 48 hr: 38600 ng/g
  concentration at 72 hr: 2720 ng/g
[12]
  concentration at 48 hr: 109000 ng/g
  concentration at 72 hr: 24000 ng/g
[13]
  concentration at 0.5 h: 264 ng/g
  concentration at 4 h: 18.7 ng/g
choroid, Choroid, OS, free acid, Group 3, read-out: Choroid Conc. (ng/g) OS
  concentration at 0.5 h: 83.1 ng/g
[14]
  concentration at 0.5 h: 282 ng/g
  concentration at 4 h: 13.4 ng/g
[15]
  concentration at 0.5 h: 127 ng/g
  concentration at 4 h: 61 ng/g
[16]
  concentration at 0.5 h: 266 ng/g
  concentration at 4 h: 15.5 ng/g
choroid, Choroid, 1 hr, OD, free acid, Group 3, read-out: Choroid Conc. (ng/g) OD
  concentration at 1 h: 66.4 ng/g
choroid, Choroid, 1 hr, OD, sodium salt, Group 2, read-out: Choroid Conc. (ng/g) OD
  concentration at 1 h: 320 ng/g
choroid, Choroid, 1 hr, OS, free acid, Group 3, read-out: Choroid Conc. (ng/g) OS
  concentration at 1 h: 88.1 ng/g
choroid, Choroid, 1 hr, OS, sodium salt, Group 2, read-out: Choroid Conc. (ng/g) OS
  concentration at 1 h: 144 ng/g
choroid, Choroid, 1 hr, free acid, Group 3, read-out: Choroid Average
  concentration at 1 h: 83.3 ng/g
choroid, Choroid, 1 hr, sodium salt, Group 2, read-out: Choroid Average
  concentration at 1 h: 200 ng/g
choroid, Choroid, 2 hr, OD, free acid, Group 3, read-out: Choroid Conc. (ng/g) OD
  concentration at 2 h: 36.5 ng/g
choroid, Choroid, 2 hr, OS, free acid, Group 3, read-out: Choroid Conc. (ng/g) OS
  concentration at 2 h: 53.2 ng/g
choroid, Choroid, 2 hr, free acid, Group 3, read-out: Choroid Average
  concentration at 2 h: 47.7 ng/g
choroid, Choroid, 2 hr, sodium salt, Group 2, read-out: Choroid Average
  concentration at 2 h: 68.8 ng/g
choroid, Choroid, OD, free acid, Group 3, read-out: Choroid Conc. (ng/g) OD
  concentration at 4 h: 53 ng/g
choroid, TABLE 16: Choroid, OS, free acid, Group 3, read-out: Choroid Conc. (ng/g) OS
  concentration at 0.5 h: 83.1 ng/g
choroid, TABLE 16: Choroid, free acid, Group 3, read-out: Choroid Average
  concentration at 0.5 h: 127 ng/g
choroid, TABLE 16: Choroid, 1 hr, OD, free acid, Group 3, read-out: Choroid Conc. (ng/g) OD
  concentration at 1 h: 66.4 ng/g
choroid, TABLE 16: Choroid, 1 hr, OS, free acid, Group 3, read-out: Choroid Conc. (ng/g) OS
  concentration at 1 h: 88.1 ng/g
choroid, TABLE 16: Choroid, 1 hr, free acid, Group 3, read-out: Choroid Average
  concentration at 1 h: 83.3 ng/g
choroid, TABLE 16: Choroid, 2 hr, OD, free acid, Group 3, read-out: Choroid Conc. (ng/g) OD
  concentration at 2 h: 36.5 ng/g
